Results on four cell lines are retold here after the supplement of paper PMC10307832.

Experiment in all cases: relative viability (nuclei count vs DMSO), 5 days (fraction); higher = more cells survive
Compound in the experiment “Sorafenib + Tozasertib”: CNC(=O)c1cc(Oc2ccc(NC(=O)Nc3ccc(Cl)c(C(F)(F)F)c3)cc2)ccn1 [Sorafenib] + Cc1cc(Nc2cc(N3CCN(C)CC3)nc(Sc3ccc(NC(=O)C4CC4)cc3)n2)n[nH]1 [Tozasertib] (partner 0.1 µM)
The gist of the method: (§1)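 Lung cancer cell lines in 1536-well plates were dosed by pin tool the day after seeding, either with one drug alone or with a fixed anchor-drug dose plus five library-drug doses (not always all listed) in √10 steps. After 5 days, cells were fixed and their nuclei stained in one step (final 0.05% Triton X-100, 1% formaldehyde, 1 ug/ml Hoechst), then counted on 4× images. Relative viability is the nuclei count in treated wells divided by that in vehicle wells. Values are medians of duplicate plates.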

Compound in the experiment “Sorafenib + Vorinostat”: CNC(=O)c1cc(Oc2ccc(NC(=O)Nc3ccc(Cl)c(C(F)(F)F)c3)cc2)ccn1 [Sorafenib] + O=C(CCCCCCC(=O)Nc1ccccc1)NO [Vorinostat] (partner 1 µM)
Put shortly: as §1

Compound in the experiment “Sorafenib + Pemetrexed”: CNC(=O)c1cc(Oc2ccc(NC(=O)Nc3ccc(Cl)c(C(F)(F)F)c3)cc2)ccn1 [Sorafenib] + Nc1nc2[nH]cc(CCc3ccc(C(=O)N[C@@H](CCC(=O)O)C(=O)O)cc3)c2c(=O)[nH]1 [Pemetrexed] (partner 0.2 µM)
The gist of the method:
as §1

Compound in the experiment “Sorafenib + Decitabine”: CNC(=O)c1cc(Oc2ccc(NC(=O)Nc3ccc(Cl)c(C(F)(F)F)c3)cc2)ccn1 [Sorafenib] + Nc1ncn([C@H]2C[C@H](O)[C@@H](CO)O2)c(=O)n1 [Decitabine] (partner 2 µM)
The gist of the method:
as §1

Compound in the experiment “Sorafenib + Navitoclax”: CNC(=O)c1cc(Oc2ccc(NC(=O)Nc3ccc(Cl)c(C(F)(F)F)c3)cc2)ccn1 [Sorafenib] + CC1(C)CCC(c2ccc(Cl)cc2)=C(CN2CCN(c3ccc(C(=O)NS(=O)(=O)c4ccc(N[C@H](CCN5CCOCC5)CSc5ccccc5)c(S(=O)(=O)C(F)(F)F)c4)cc3)CC2)C1 [Navitoclax] (partner 0.5 µM)
Put shortly:
as §1

As for NCI-H460, the relative viability with Sorafenib + Tozasertib (first compound 0.08 µM) turned out to be 0.514; in the experiment with Sorafenib + Tozasertib (first compound 0.253 µM), 0.386; in the experiment with Sorafenib + Tozasertib (first compound 2.53 µM) it was 0.414; with Sorafenib + Tozasertib (first compound 8 µM), 0.0751; with Sorafenib + Vorinostat (first compound 0.08 µM) it was 0.748; with Sorafenib + Vorinostat (first compound 0.253 µM), 0.582. The relative viability with Sorafenib + Vorinostat (first compound 2.53 µM) stood at 0.611; in the experiment with Sorafenib + Vorinostat (first compound 8 µM) it was 0.363; with Sorafenib + Pemetrexed (first compound 0.08 µM), 0.0604; in the experiment with Sorafenib + Pemetrexed (first compound 0.253 µM) it was 0.0653; with Sorafenib + Pemetrexed (first compound 2.53 µM), 0.0731; in the experiment with Sorafenib + Pemetrexed (first compound 8 µM), 0.0582. The relative viability with Sorafenib + Decitabine (first compound 0.08 µM) is 0.472; in the experiment with Sorafenib + Decitabine (first compound 0.253 µM) it was 0.447; with Sorafenib + Decitabine (first compound 2.53 µM), 0.457; with Sorafenib + Decitabine (first compound 8 µM), 0.357; with Sorafenib + Navitoclax (first compound 0.08 µM), 1.2; with Sorafenib + Navitoclax (first compound 0.253 µM), 1.02. Besides, the values for the relative viability with Sorafenib + Navitoclax (first compound 2.53 µM) and with Sorafenib + Navitoclax (first compound 8 µM) were 1.12 and 0.231, respectively.

Consider LOU-NH91, for which the relative viability in the experiment with Sorafenib + Tozasertib (first compound 0.08 µM) was determined as 0.69; in the experiment with Sorafenib + Tozasertib (first compound 0.253 µM) it was 0.681; with Sorafenib + Tozasertib (first compound 2.53 µM), 0.767; with Sorafenib + Tozasertib (first compound 8 µM) it was 0.647; with Sorafenib + Vorinostat (first compound 0.08 µM), 1.03; in the experiment with Sorafenib + Vorinostat (first compound 0.253 µM), 0.881. The relative viability was 1.11 with Sorafenib + Vorinostat (first compound 2.53 µM); 0.493 with Sorafenib + Vorinostat (first compound 8 µM); 0.419 in the experiment with Sorafenib + Pemetrexed (first compound 0.08 µM); 0.37 in the experiment with Sorafenib + Pemetrexed (first compound 0.253 µM); 0.436 in the experiment with Sorafenib + Pemetrexed (first compound 2.53 µM); 0.807 with Sorafenib + Decitabine (first compound 0.08 µM). Further, the relative viability worked out at 0.829 in the experiment with Sorafenib + Decitabine (first compound 0.253 µM); 0.87 with Sorafenib + Decitabine (first compound 2.53 µM); 0.845 in the experiment with Sorafenib + Decitabine (first compound 8 µM); 0.82 with Sorafenib + Navitoclax (first compound 0.08 µM); 0.742 with Sorafenib + Navitoclax (first compound 0.253 µM); 0.86 with Sorafenib + Navitoclax (first compound 2.53 µM). In addition, in the experiment with Sorafenib + Navitoclax (first compound 8 µM), the relative viability came out at 0.61.

As for H3255, the relative viability in the experiment with Sorafenib + Tozasertib (first compound 0.08 µM) stood at 0.588; with Sorafenib + Tozasertib (first compound 0.253 µM), 0.458; with Sorafenib + Tozasertib (first compound 2.53 µM), 0.72; with Sorafenib + Tozasertib (first compound 8 µM), 0.482; in the experiment with Sorafenib + Vorinostat (first compound 0.253 µM), 0.722; with Sorafenib + Vorinostat (first compound 2.53 µM), 0.723. The relative viability was 0.618 in the experiment with Sorafenib + Vorinostat (first compound 8 µM); 0.636 in the experiment with Sorafenib + Pemetrexed (first compound 0.08 µM); 0.554 with Sorafenib + Pemetrexed (first compound 0.253 µM); 0.587 in the experiment with Sorafenib + Pemetrexed (first compound 2.53 µM); 0.47 with Sorafenib + Pemetrexed (first compound 8 µM); 0.656 with Sorafenib + Decitabine (first compound 0.08 µM). Further, the relative viability in the experiment with Sorafenib + Decitabine (first compound 0.253 µM) was 0.523; with Sorafenib + Decitabine (first compound 2.53 µM) it was 0.593; with Sorafenib + Decitabine (first compound 8 µM), 0.366; with Sorafenib + Navitoclax (first compound 0.08 µM) it was 0.652; with Sorafenib + Navitoclax (first compound 0.253 µM), 0.46; with Sorafenib + Navitoclax (first compound 2.53 µM), 0.616. In the experiment with Sorafenib + Navitoclax (first compound 8 µM), the relative viability is 0.502.

LU99A: the relative viability with Sorafenib + Tozasertib (first compound 0.08 µM) came to 0.305; with Sorafenib + Tozasertib (first compound 0.253 µM) it was 0.278; in the experiment with Sorafenib + Tozasertib (first compound 2.53 µM), 0.247; with Sorafenib + Tozasertib (first compound 8 µM), 0.26; with Sorafenib + Vorinostat (first compound 0.08 µM), 0.487; in the experiment with Sorafenib + Vorinostat (first compound 0.253 µM) it was 0.445. The relative viability with Sorafenib + Vorinostat (first compound 2.53 µM) was 0.437; in the experiment with Sorafenib + Vorinostat (first compound 8 µM) it was 0.192; with Sorafenib + Pemetrexed (first compound 0.08 µM), 0.195; with Sorafenib + Pemetrexed (first compound 0.253 µM) it was 0.166; with Sorafenib + Pemetrexed (first compound 2.53 µM), 0.193; with Sorafenib + Pemetrexed (first compound 8 µM), 0.138. Moreover, the relative viability in the experiment with Sorafenib + Decitabine (first compound 0.08 µM) is 0.86; in the experiment with Sorafenib + Decitabine (first compound 0.253 µM), 0.91; in the experiment with Sorafenib + Decitabine (first compound 8 µM), 0.606; with Sorafenib + Navitoclax (first compound 0.08 µM), 0.811; in the experiment with Sorafenib + Navitoclax (first compound 0.253 µM), 0.669; with Sorafenib + Navitoclax (first compound 2.53 µM), 0.72. The relative viability with Sorafenib + Navitoclax (first compound 8 µM) was 0.579.
